The values that follow are results of earlier work, collected in paper PMC8978187, “Feasibility, Biodistribution, and Preliminary Dosimetry in Peptide-Targeted Radionuclide Therapy of Diverse Adenocarcinomas Using ^177Lu-FAP-2286: First-in-Humans Results” (Journal of Nuclear Medicine, 2022).

Where two headings read alike, the source gives them in different places.

Data set [1] deals with tumor. The following applies: compared with ^177Lu-FAP-2286. The source says: In our patient cohort, FAP expression was confirmed in these malignancies on PET/CT using ^68Ga-FAP-2286 or ^68Ga-FAPI-04.
The conditions of data set [2]: patients. The source says: These findings were further corroborated by dosimetric studies.

Consider `N#C[C@@H]1CCCN1C(=O)CNC(=O)c1ccnc2ccc(OCCCN3CCN(C(=O)CN4CCN(CC(=O)O)CCN(CC(=O)O)CCN(CC(=O)O)CC4)CC3)cc12` [FAPI-02], for which, in data set [1], the “tumor washout and tumor retention time” value is “earlier tumor washout and a correspondingly shorter tumor retention time”.
As for `O=C([O-])CN1CCN(CC(=O)[O-])CCN(CC(=O)NCC2CCC(C(=O)N[C@@H](Cc3ccc4ccccc4c3)C(=O)NCCCC[C@H](NC(=O)N[C@@H](CCC(=O)O)C(=O)O)C(=O)O)CC2)CCN(CC(=O)[O-])CC1.[177Lu+3]` (some centres unmarked) [^177Lu-PSMA-617], in data set [2], the “bone marrow absorbed dose” value is listed as 0.03 Gy/GBq, the “effective half-life in the kidneys” value is listed as 42 h, the “effective half-life in the whole body” value is given as 40 h and the kidney absorbed dose is 0.99 Gy/GBq. The whole-body absorbed dose in data set [2] is recorded as 0.04 Gy/GBq. Besides, in data set [2] (range), the “kidney absorbed dose, range” value was 0.45–1.6 Gy/GBq. The “absorbed dose in bone metastases” value in data set [2] (reported by Kulkarni et al.) is given as 2.9 Gy/GBq. For the same molecule, in data set [2] (reported by Violet et al.), the “absorbed dose in bone metastases” value is on record as 5.3 Gy/GBq. The “absorbed dose in bone metastases, range” value in data set [2] (reported by Violet et al., range) is recorded as 0.4–10.7 Gy/GBq.
As to `N#C[C@@H]1CC(F)(F)CN1C(=O)CNC(=O)c1ccnc2ccc(OCCCN3CCN(C(=O)CN4CCN(CC(=O)O)CCN(CC(=O)O)CCN(CC(=O)O)CC4)CC3)cc12` [FAPI-04], in data set [1], the “tumor washout and tumor retention time” value was “earlier tumor washout and a correspondingly shorter tumor retention time”.
